Experiment: solubility in water or solvents
Source text: In addition, β-cyclodextrin is a relatively small molecule with all of its —OH groups lying on the outside of the molecule. If all of the —OH groups formed complexes with pyrrolidone groups, none would be available to promote water solubility.

Substance	solubility in water
Dextran-70	extremely soluble in water
Polyvinylpyrrolidone [PVP]	quite water soluble

Source: patent US7674471B2, “Topical composition, topical composition precursor, and methods for manufacturing and using” (Skinvisible Pharmaceuticals, Inc., priority 2001, dated 2010)
